Measurements from ChEMBL document CHEMBL2384899, “Synthesis and structure-activity relationships of phosphonic arginine mimetics as inhibitors of the M1 and M17 aminopeptidases from Plasmodium falciparum” (J Med Chem, 2013).

How the values were obtained:
[1] = Inhibition of Plasmodium falciparum recombinant M1 aminopeptidase expressed in Escherichia coli assessed as conversion of L-leucine-7-amido-4-methylcoumarin hydrochloride to NHMec preincubated for 10 mins prior to substrate addition by Dixon plot analysis
[2] = Inhibition of Plasmodium falciparum recombinant M17 leucyl aminopeptidase expressed in Escherichia coli assessed as conversion of L-leucine-7-amido-4-methylcoumarin hydrochloride to NHMec preincubated for 10 mins prior to substrate addition by Dixon plot analysis

Structure (SMILES)	Ki [1] [µM]	Ki [2] [µM]
N=C(N)Nc1cccc(C(N)P(=O)(O)O)c1 (stereo unspecified)	> 1000	0.16
N=C(N)NCCCCC(N)P(=O)(O)O (stereo unspecified)	11	268
NCCCC(N)P(=O)(O)O (stereo unspecified)	> 1000	> 1000
N=C(N)Nc1ccc(CC(N)P(=O)(O)O)cc1 (stereo unspecified)	> 1000	63
N=C(N)Nc1ccc(C(N)P(=O)(O)O)cc1 (stereo unspecified)	127	1.8
NC(c1ccc(-n2cccn2)cc1)P(=O)(O)O (stereo unspecified)	104	0.011
N=C(N)c1ccc(C(N)P(=O)(O)O)cc1 (stereo unspecified)	345	> 1000
NC(N)=NCCCC(N)P(=O)(O)O (stereo unspecified)	193	> 1000
